System: ATF4 luciferase reporter in HEK293T cells
Assay: ATF4-Luc assay (ATF4 luciferase reporter, tunicamycin-treated HEK293T cells)
Assay type: cell-based, human
Settings: Homo sapiens, HEK-293T; HEK293T cells carrying the ATF4 luciferase reporter, 1 μg/mL tunicamycin, 7 hours

First: O=C(COc1ccc(Cl)c(F)c1)NC12CC(NC(=O)COc3cc(F)c(F)cc3F)(C1)C2 [Compound 414, 2-(4-chloro-3-fluorophenoxy)-N-{3-[2-(2,4,5-trifluorophenoxy)acetamido]bicyclo[1.1.1]pentan-1-yl}acetamide]
Second: O=C(COc1ccc(Cl)c(F)c1)NC12CCCC(NC(=O)COc3ccc(Cl)c(F)c3)(C1)C2 [Compound 179, N,N′-(bicyclo[3.1.1]heptane-1,5-diyl)bis[2-(4-chloro-3-fluorophenoxy)acetamide]]
The EC50 of the first is lower: under 10 nM for the first, over 2000 nM for the second. The first is the more potent here.

First: O=C(COc1ccc(Cl)c(Cl)c1)NC12CCC(NC(=O)COc3cc(F)c4cn[nH]c4c3)(C1)C2 [Compound 195, 2-(3,4-dichlorophenoxy)-N-(4-{2-[(4-fluoro-1H-indazol-6-yl)oxy]acetamido}-bicyclo[2.1.1]hexan-1-yl)acetamide]
Second: O=C(COc1cc(F)c2cn[nH]c2c1)NC12CCC(NC(=O)COc3ccc4cn[nH]c4c3)(CC1)[C@@H](O)C2 [Compound 709]
The EC50 of the first is higher: 10 to 50 nM for the first, under 10 nM for the second. The second is the more potent here.

First: O=C(COCCc1ccc(F)cc1)NC12CC(NC(=O)COc3ccc(Cl)c(Cl)c3)(C1)C2 [Compound 149, 2-(3,4-dichlorophenoxy)-N-(3-{2-[2-(4-fluorophenyl)ethoxy]acetamido}-bicyclo[1.1.1]pentan-1-yl)acetamide]
Second: O=C(CCOCc1cccc(Cl)c1)NC12CC(NC(=O)COc3ccc(Cl)c(Cl)c3)(C1)C2 [Compound 167, 3-[(3-chlorophenyl)methoxy]-N-{3-[2-(3,4-dichlorophenoxy)acetamido]-bicyclo[1.1.1]pentan-1-yl}propanamide]
The EC50 of the first is lower: 10 to 50 nM for the first, 500 to 2000 nM for the second. The first is the more potent here.

First: O=C(COc1ccc(Cl)c(F)c1)NC12CCC(NC(=O)COc3ccc(Cl)c(F)c3)(CC1)[C@@H](c1nn[nH]n1)C2 [Compound 419, N,N′-[(2S)-2-(2H-tetrazol-5-yl)bicyclo[2.2.2]octane-1,4-diyl]bis[2-(4-chloro-3-fluorophenoxy)acetamide]]
Second: O=C(COc1ccc(Cl)c(F)c1)NC12CCC(NC(=O)COc3ccc(F)c(Cl)c3)(CC1)[C@@H](O)C2 [Compound 596, 2-(4-chloro-3-fluorophenoxy)-N-{(3S)-4-[2-(3-chloro-4-fluorophenoxy)acetamido]-3-hydroxybicyclo[2.2.2]octan-1-yl}acetamide]
The EC50 of the first is higher: 50 to 250 nM for the first, under 10 nM for the second. The second is the more potent here.

Compared with `O=C(COc1ccc(Cl)c(F)c1)NC12CCC(O)C(NC(=O)COc3ccc(Cl)c(F)c3)(CC1)C2` (centres unmarked) [Compound 670, N,N′-(2-hydroxybicyclo[3.2.1]octane-1,5-diyl)bis[2-(4-chloro-3-fluorophenoxy)acetamide]], `CC1(O)CC2(NC(=O)COc3ccc(Cl)c(F)c3)CCC1(NC(=O)COc1ccc(Cl)c(F)c1)CC2` (centres unmarked) [Compound 339, N,N′-(2-hydroxy-2-methylbicyclo[2.2.2]octane-1,4-diyl)bis[2-(4-chloro-3-fluorophenoxy)acetamide]] is lower in EC50: 500 to 2000 nM for the first, under 10 nM for the second.

`CO[C@H]1C[C@]2(NC(=O)COc3ccc(Cl)c(F)c3)CC[C@@]1(NC(=O)COc1ccc(Cl)c(F)c1)CC2O` (mixture of isomers) [Compound 553, rac-N,N′-[(1R,4R,5S)-2-hydroxy-5-methoxybicyclo[2.2.2]octane-1,4-diyl]bis[2-(4-chloro-3-fluorophenoxy)acetamide]] and `O=C(COc1ccc(Cl)c(F)c1)NC12CCC(NC(=O)CCOc3ccc(Cl)c(F)c3)(CC1)[C@@H](O)C2` [Compound 650, 3-(4-chloro-3-fluorophenoxy)-N-{(2S)-4-[2-(4-chloro-3-fluorophenoxy)acetamido]-2-hydroxybicyclo[2.2.2]octan-1-yl}propanamide] cannot be ordered by EC50: under 10 nM for the first, under 10 nM for the second.

`O=C(CCCOc1cccc(Cl)c1)NC12CC(NC(=O)COc3ccc(Cl)c(Cl)c3)(C1)C2` [Compound 168, 4-(3-chlorophenoxy)-N-{3-[2-(3,4-dichlorophenoxy)acetamido]-bicyclo[1.1.1]pentan-1-yl}butanamide] and `O=C(COc1ccc(Cl)cc1)NC12CC(NC(=O)COc3cccc(F)c3)(C1)C2` [Compound 119, 2-(4-chlorophenoxy)-N-{3-[2-(3-fluorophenoxy)acetamido]-bicyclo[1.1.1]pentan-1-yl}acetamide] fall in the same range of EC50: 50 to 250 nM for the first, 50 to 250 nM for the second.

First: Cc1ncc2c(c1OCC(=O)NC13CCC(NC(=O)COc4ccc(Cl)c(F)c4)(CC1)C[C@@H]3O)COC2 [Compound 499, 2-(4-chloro-3-fluorophenoxy)-N-[(3S)-3-hydroxy-4-{2-[(6-methyl-1,3-dihydrofuro[3,4-c]pyridin-7-yl)oxy]acetamido}bicyclo[2.2.2]octan-1-yl]acetamide]
Second: COc1ncc(OCC(=O)NC23CCC(NC(=O)COc4ccc(F)c(F)c4)(CC2)[C@@H](O)C3)cn1 [Compound 634, 2-(3,4-difluorophenoxy)-N-[(2S)-2-hydroxy-4-{2-[(2-methoxypyrimidin-5-yl)oxy]acetamido}bicyclo[2.2.2]octan-1-yl]acetamide]
The EC50 of the first is higher: over 2000 nM for the first, 50 to 250 nM for the second.

`O=C(COc1ccc(Cl)c(F)c1)NC12CCC(NC(=O)Oc3ccc(Cl)cc3)(CC1)C(O)C2` (centres unmarked) [Compound 436, 4-chlorophenyl {4-[2-(4-chloro-3-fluorophenoxy)acetamido]-2-hydroxybicyclo[2.2.2]octan-1-yl}carbamate] and `O=C(COc1ccc(Cl)c(F)c1)NC12CCC(NC(=O)CNc3ccc(Cl)cc3)(CC1)[C@@H](O)C2` [Compound 657, 2-(4-chloroanilino)-N-{(2S)-4-[2-(4-chloro-3-fluorophenoxy)acetamido]-2-hydroxybicyclo[2.2.2]octan-1-yl}acetamide] fall in the same range of EC50: 50 to 250 nM for the first, 50 to 250 nM for the second.

Compared with `COC(=O)C1=CC2(NC(=O)COc3ccc(Cl)c(F)c3)CCC1(NC(=O)COc1ccc(Cl)c(F)c1)CC2` [Compound 718, methyl 1,4-bis[2-(4-chloro-3-fluorophenoxy)acetamido]bicyclo[2.2.2]oct-2-ene-2-carboxylate], `O=C(COc1ccc(Cl)c(F)c1)NC12CCC(NC(=O)COc3ccc(Cl)c(F)c3)(CC1)N(CCO)C2=O` [Compound 679, N,N′-[2-(2-hydroxyethyl)-3-oxo-2-azabicyclo[2.2.2]octane-1,4-diyl]bis[2-(4-chloro-3-fluorophenoxy)acetamide]] is higher in EC50: under 10 nM for the first, 50 to 250 nM for the second. The first is the more potent here.

First: Cc1cccc(COCC(=O)NC23CC(NC(=O)COc4ccc(Cl)c(F)c4)(C2)C3)c1 [Compound 140, 2-(4-chloro-3-fluorophenoxy)-N-(3-{2-[(3-methylphenyl)methoxy]acetamido}-bicyclo[1.1.1]pentan-1-yl)acetamide]
Second: CC(C)(C)OC(=O)CN(CC(=O)NC12CC(NC(=O)COc3ccc(Cl)c(F)c3)(C1)C2)c1ccc(Cl)cc1 [Compound 685, tert-butyl {[2-({3-[2-(4-chloro-3-fluorophenoxy)acetamido]bicyclo[1.1.1]pentan-1-yl}amino)-2-oxoethyl](4-chlorophenyl)amino}acetate]
The EC50 of the first is lower: 50 to 250 nM for the first, over 2000 nM for the second.

First: Cc1n[nH]c2cc(OCC(=O)NC34CCC(NC(=O)COc5ccc(OC(F)(F)F)c(F)c5)(CC3)C[C@@H]4O)ccc12 [Compound 747, 2-[3-fluoro-4-(trifluoromethoxy)phenoxy]-N-[(3S)-3-hydroxy-4-{2-[(3-methyl-1H-indazol-6-yl)oxy]acetamido}bicyclo[2.2.2]octan-1-yl]acetamide]
Second: O=C(COc1ccc(OC(F)(F)F)c(F)c1)NC12CCC(NC(=O)COc3ccc(F)c(F)c3)(CC1)[C@@H](O)C2 [Compound 763, 2-(3,4-difluorophenoxy)-N-[(2S)-4-{2-[3-fluoro-4-(trifluoromethoxy)phenoxy]acetamido}-2-hydroxybicyclo[2.2.2]octan-1-yl]acetamide]
The EC50 of the first is higher: 10 to 50 nM for the first, under 10 nM for the second.

First: CN(C)c1ccc(CC(=O)NC23CCC(NC(=O)COc4ccc(Cl)c(F)c4)(CC2)CC3O)cc1 (centres unmarked) [Compound 320, 2-(4-chloro-3-fluorophenoxy)-N-(4-{2-[4-(dimethylamino)phenyl]acetamido}-3-hydroxybicyclo[2.2.2]octan-1-yl)acetamide]
Second: Cc1cc(OCC(=O)NC23CCC(NC(=O)COc4ccc(F)c(F)c4)(CC2)[C@@H](O)C3)ccc1F [Compound 815, 2-(3,4-difluorophenoxy)-N-{(2S)-4-[2-(4-fluoro-3-methylphenoxy)acetamido]-2-hydroxybicyclo[2.2.2]octan-1-yl}acetamide]
The EC50 of the first is higher: 500 to 2000 nM for the first, under 10 nM for the second.

Compared with `O=C(COc1ccc(Cl)c(F)c1)NC12CCC(NCc3nc4cc(F)c(F)cc4[nH]3)(CC1)C[C@@H]2O` [Compound 648, 2-(4-chloro-3-fluorophenoxy)-N-[(2S)-4-{[(5,6-difluoro-1H-benzimidazol-2-yl)methyl]amino}-2-hydroxybicyclo[2.2.2]octan-1-yl]acetamide], `O=C(COc1cc(F)c2cn[nH]c2c1)NC12CCC(NC(=O)COc3cc(F)c4cn[nH]c4c3)(CC1)[C@@H](O)C2` [Compound 710, N,N′-[(2S)-2-hydroxybicyclo[2.2.2]octane-1,4-diyl]bis{2-[(4-fluoro-1H-indazol-6-yl)oxy]acetamide}] is lower in EC50: 10 to 50 nM for the first, under 10 nM for the second. The second is the more potent here.

Compared with `O=C(COc1ccc(Cl)c(Cl)c1)NC12CCC(NC(=O)COc3ccc(Cl)c(Cl)c3)(CC1)C(=O)N2` [Compound 600, N,N′-(3-oxo-2-azabicyclo[2.2.2]octane-1,4-diyl)bis[2-(3,4-dichlorophenoxy)acetamide]], `O=C(COc1ccc(Cl)c(Cl)c1)NC12CCC(NC(=O)OCc3ccccc3)(C1)C2` [Compound 193, benzyl {4-[2-(3,4-dichlorophenoxy)acetamido]bicyclo[2.1.1]hexan-1-yl}carbamate] is higher in EC50: under 10 nM for the first, over 2000 nM for the second.

Going from `O=C(COc1ccc(Cl)c(F)c1)NC12CC(NS(=O)(=O)Cc3cc(F)cc(F)c3)(C1)C2` [Compound 484, 2-(4-chloro-3-fluorophenoxy)-N-(3-{[(3,5-difluorophenyl)methanesulfonyl]amino}bicyclo[1.1.1]pentan-1-yl)acetamide] to `O=C(COc1ccc(F)cc1)NC12CCC(NC(=O)COc3ccc(F)c(C(F)(F)F)c3)(CC1)[C@@H](O)C2` [Compound 831, 2-(4-fluorophenoxy)-N-[(3S)-4-{2-[4-fluoro-3-(trifluoromethyl)phenoxy]acetamido}-3-hydroxybicyclo[2.2.2]octan-1-yl]acetamide], the EC50 falls from over 2000 nM to under 10 nM.

— patent publication US20240166652A1, “MODULATORS OF THE INTEGRATED STRESS PATHWAY” (Calico Life Sciences LLC, priority 2017, published 2024)
